# Target: T1, human EGF-R (Homo sapiens, UniProt P00533)
# T1 construct: expressed in transfected cells; host or cells: F/L-HERc cells (murine IL-3-dependent FDC-P1 line transduced with LXSN retroviral vector carrying human EGF-R cDNA; packaging line GP+E86)
# Test: Inhibition of EGF-dependent proliferation of F/L-HERc cells (Cell Titer 96 AQueous assay)
# Format: cell-based
# Conditions: F/L-HERc cells (murine IL-3-dependent line expressing human EGF-R), stimulated with EGF 20 ng/ml, 48 hours at 37° C.
# Text: A cell line of murine origin dependent on interleukin-3-(IL-3) which was genetically modified to express functional human EGF-R was used here. The proliferation of these cells known as F/L-HERc can therefore be stimulated either by murine IL-3 or by EGF (cf. von Rüden, T. et al. in EMBO J. 7, 2749-2756 (1988). and Pierce, J. H. et al. in Science 239, 628-631 (1988)).
# The starting material used for the F/L-HERc cells was the cell line FDC-P1, the production of which has been described by Dexter, T. M. et al. in J. Exp. Med. 152, 1036-1047 (1980). Alternatively, however, other growth-factor-dependent cells may also be used (cf. for example Pierce, J. H. et al. in Science 239, 628-631 (1988), Shibuya, H. et al. in Cell 70, 57-67 (1992) and Alexander, W. S. et al. in EMBO J. 10, 3683-3691 (1991)). For expressing the human EGF-R cDNA (cf. Ullrich, A. et al. in Nature 309, 418-425 (1984)) recombinant retroviruses were used as described by von Rüden, T. et al., EMBO J. 7, 2749-2756 (1988), except that the retroviral vector LXSN (cf. Miller, A. D. et al. in BioTechniques 7, 980-990 (1989)) was used for the expression of the EGF-R cDNA and the line GP+E86 (cf. Markowitz, D. et al. in J. Virol. 62, 1120-1124 (1988)) was used as the packaging cell.
# F/L-HERc cells were cultivated in RPMI/1640 medium (Bio Whittaker), supplemented with 10% foetal calf serum (FCS, Boehringer Mannheim), 2 mM glutamine (Bio Whittaker), standard antibiotics and 20 ng/ml of human EGF (Promega), at 37° C. and 5% CO2. In order to investigate the inhibitory activity of the compounds according to the invention, 1.5×10^4 cells per well were cultivated in triplicate in 96-well dishes in the above medium (200 μl), the cell proliferation being stimulated with either EGF (20 ng/ml) or murine IL-3. The IL-3 used was obtained from culture supernatants of the cell line X63/0 mIL-3 (cf. Karasuyama, H. et al. in Eur. J. Immunol. 18, 97-104 (1988)). The compounds according to the invention were dissolved in 100% dimethylsulphoxide (DMSO) and added to the cultures in various dilutions, the maximum DMSO concentration being 1%. The cultures were incubated for 48 hours at 37° C.
# In order to determine the inhibitory activity of the compounds according to the invention the relative cell number was measured in O.D. units using the Cell Titer 96™ AQueous Non-Radioactive Cell Proliferation Assay (Promega). The relative cell number was calculated as a percentage of the control (F/LHERc cells without inhibitor) and the concentration of active substance which inhibits the proliferation of the cells by 50% (IC50) was derived therefrom.
# T1 sequence (P00533 25-1210): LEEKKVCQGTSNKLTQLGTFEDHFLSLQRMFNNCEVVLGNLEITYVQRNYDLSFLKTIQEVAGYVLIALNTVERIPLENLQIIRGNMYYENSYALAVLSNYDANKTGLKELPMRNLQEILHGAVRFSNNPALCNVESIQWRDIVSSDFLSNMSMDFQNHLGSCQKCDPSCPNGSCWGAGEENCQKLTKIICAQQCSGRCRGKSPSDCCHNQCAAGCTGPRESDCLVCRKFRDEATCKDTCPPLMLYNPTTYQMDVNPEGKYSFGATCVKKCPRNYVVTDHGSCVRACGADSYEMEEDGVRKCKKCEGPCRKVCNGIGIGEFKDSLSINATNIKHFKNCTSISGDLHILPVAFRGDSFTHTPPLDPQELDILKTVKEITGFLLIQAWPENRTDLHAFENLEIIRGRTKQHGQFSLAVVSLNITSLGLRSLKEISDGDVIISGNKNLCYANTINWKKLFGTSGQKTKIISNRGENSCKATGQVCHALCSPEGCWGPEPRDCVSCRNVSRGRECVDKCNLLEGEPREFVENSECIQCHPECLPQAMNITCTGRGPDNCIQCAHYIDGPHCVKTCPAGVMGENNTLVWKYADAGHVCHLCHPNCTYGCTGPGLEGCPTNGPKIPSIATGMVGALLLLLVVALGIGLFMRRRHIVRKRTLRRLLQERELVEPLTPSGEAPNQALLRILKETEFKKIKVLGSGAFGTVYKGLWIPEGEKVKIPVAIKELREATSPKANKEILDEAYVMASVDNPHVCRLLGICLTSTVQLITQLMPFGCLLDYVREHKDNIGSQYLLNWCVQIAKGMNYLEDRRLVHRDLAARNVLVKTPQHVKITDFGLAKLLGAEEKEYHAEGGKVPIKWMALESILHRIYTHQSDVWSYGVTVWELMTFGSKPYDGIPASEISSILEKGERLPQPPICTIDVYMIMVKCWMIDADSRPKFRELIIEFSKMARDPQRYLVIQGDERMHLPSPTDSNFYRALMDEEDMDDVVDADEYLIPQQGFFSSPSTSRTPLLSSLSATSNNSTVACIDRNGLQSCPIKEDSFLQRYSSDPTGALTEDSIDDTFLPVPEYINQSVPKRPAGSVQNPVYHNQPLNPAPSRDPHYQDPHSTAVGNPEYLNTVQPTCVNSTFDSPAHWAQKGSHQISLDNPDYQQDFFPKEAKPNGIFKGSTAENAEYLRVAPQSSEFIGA
row,IC50,SMILES
1,4 nM,"O=C1OCCC1N1CCN(CCOc2cc3ncnc(Nc4ccc(F)c(Cl)c4)c3cc2OC2CCCC2)CC1 (stereo not shown) [Example 1, 4-[(3-chloro-4-fluorophenyl)amino]-6-cyclopentyloxy-7-{2-[4-(2-oxo-tetrahydrofuran-3-yl)-piperazin-1-yl]-ethoxy}-quinazoline]"
2,62 nM,"O=C1CC(N2CCN(CCOc3cc4ncnc(Nc5ccc(F)c(Cl)c5)c4cc3OCC3CCCC3)CC2)CO1 (stereo not shown) [Example 3, 4-[(3-chloro-4-fluorophenyl)amino]-6-cyclopentylmethoxy-7-{2-[4-(2-oxo-tetrahydrofuran-4-yl)-piperazin-1-yl]-ethoxy}-quinazoline]"
3,67 nM,"O=C1CC[C@H](CN2CCN(CCOc3cc4ncnc(Nc5ccc(F)c(Cl)c5)c4cc3OC3CCCC3)CC2)O1 [Example 4, 4-[(3-chloro-4-fluorophenyl)amino]-6-cyclopentyloxy-7-(2-{4-[(R)-(2-oxo-tetrahydrofuran-5-yl)methyl]-piperazin-1-yl}-ethoxy)-quinazoline]"
4,11 nM,"O=C1CC(N2CCN(CCOc3cc4ncnc(Nc5ccc(F)c(Cl)c5)c4cc3OC3CCCC3)CC2)CO1 (stereo not shown) [3(1), 4-[(3-chloro-4-fluorophenyl)amino]-6-cyclopentyloxy-7-{2-[4-(2-oxo-tetrahydrofuran-4-yl)-piperazin-1-yl]-ethoxy}-quinazoline]"

# Reference: patent publication US6617329B2, “Aminoquinazolines and their use as medicaments” (Boehringer Ingelheim Pharma KG, priority 2000, dated 2003)
